Earlier results on one compound are cited in US10662178B2, “Crystalline form of Olaparib” (Apotex Inc., priority 2018, dated 2020).

For this data set the following is noted: CHMP Assessment Report EMEA/H/C/003726/0000.

As to `O=C(c1cc(Cc2n[nH]c(=O)c3ccccc23)ccc1F)N1CCN(C(=O)C2CC2)CC1` [Olaparib, 4-[(3-{[4-(cyclopropylcarbonyl)-piperazin-1-yl]carbonyl}-4-fluorophenyl)methyl]phthalazin-1(2H)-one], the “Biopharmaceutics Classification System (BCS) class” value is listed as “Class IV”. Besides, the solubility result (drug substance in the approved drug product LYNPARZA) is “low solubility”.
